Three molecules from US7429616B2, “Synthesis and complete stereochemical assignment of psymberin/irciniastatin for use as antitumor compounds” (Board of Regents, University of Texas System, priority 2005, dated 2008) can be followed below.

Common to all, as to type: cell-based, human
What all share (settings): average of three experiments, concentration range 0.2 nM to 20 μM; for GI50 / LC50: Homo sapiens; for GI50: read-out: GI50 (concentration that inhibits 50% growth); for LC50: read-out: LC50 (concentration that kills 50% of the cells)

Assay [1] deals with SK-MEL-28. Briefly: Cytotoxicity, CellTiter-Glo Luminescent Cell Viability Assay, SK-MEL-28. As for the experimental part:
(§1) The cytotoxicities of compounds 28-a, 28-b, and 29-a were evaluated against the human cancer cell lines HeLa, SK-MEL-5, and SK-MEL-28. The cytotoxicity evaluations were performed, over a concentration range of 0.2 nM to 20 μM, using the CellTiter-Glo™ Luminescent Cell Viability Assay, a product of Promega Corporation (Madison, Wis. USA), according to the protocol detailed in Promega's Technical Bulletin No. 288. Each value is the average value obtained from three experiments. GI50 is the concentration that inhibits 50% growth; TGI is the concentration that inhibits 100% growth; and LC50 is the concentration that kills 50% of the cells.
A general note: ATP-based viability assays read luminescence as a measure of living cells.

Assay [2] relates to HeLa. Briefly: Cytotoxicity, CellTiter-Glo Luminescent Cell Viability Assay, HeLa. The method, then: as §1
In assay [3] the test system is SK-MEL-5. Briefly: Cytotoxicity, CellTiter-Glo Luminescent Cell Viability Assay, SK-MEL-5. As for the experimental part:
as §1

On to `C=C(C)CC(OC)[C@H](O)C(=O)N[C@@H](OC)[C@@H]1C[C@@H](O)C(C)(C)[C@@H](C[C@H](O)C(C)C2Cc3c(C)c(O)cc(O)c3C(=O)O2)O1` (stereo partly drawn) [Compound 28-a, psymberin], for which, in assay [1], the GI50 amounted to 0.23 nM, the LC50 stood at 1.2 nM and the “TGI (concentration that inhibits 100% growth)” value came to 0.7 nM. In addition, in assay [2], the GI50 worked out at 0.23 nM, the LC50 came out at 1.6 nM and the “TGI (concentration that inhibits 100% growth)” value is given as 0.90 nM. Moreover, in assay [3], the GI50 amounted to 0.3 nM, the LC50 is 1.3 nM and the “TGI (concentration that inhibits 100% growth)” value worked out at 0.7 nM.
For `C=C(C)C[C@@H](OC)[C@H](O)C(=O)N[C@@H](OC)[C@@H]1C[C@@H](O)C(C)(C)C(CC(O)[C@@H](C)C2Cc3c(C)c(O)cc(O)c3C(=O)O2)O1` (stereo partly drawn) [Compound 29-a], the GI50 in assay [1] was 200 nM; in assay [2], 60 nM; in assay [3], 300 nM. Also, the LC50 was 1100 nM in assay [1], 900 nM in assay [2] and 1700 nM in assay [3]. Further, the “TGI (concentration that inhibits 100% growth)” value in assay [1] is recorded as 550 nM; in assay [2], 200 nM; in assay [3] it was 800 nM.
For the molecule `C=C(C)C[C@H](OC)[C@H](O)C(=O)N[C@H](OC)[C@@H]1C[C@@H](O)C(C)(C)C(CC(O)[C@@H](C)C2Cc3c(C)c(O)cc(O)c3C(=O)O2)O1` (stereo partly drawn) [Compound 28-b], in assay [1], the GI50 is 110 nM, the LC50 turned out to be 900 nM and the “TGI (concentration that inhibits 100% growth)” value amounted to 400 nM. Besides, in assay [2], the GI50 turned out to be 80 nM, the LC50 was 900 nM and the “TGI (concentration that inhibits 100% growth)” value worked out at 200 nM. In addition, in assay [3], the GI50 was 300 nM, the LC50 is 1100 nM and the “TGI (concentration that inhibits 100% growth)” value turned out to be 700 nM.
